Drawing on article PMC2248166, “Quantitative peptide binding motifs for 19 human and mouse MHC class I molecules derived using positional scanning combinatorial peptide libraries” (Immunome Research, 2008), this text covers IC50 for 28 compounds.

The test has as its target HLA B*1503 (Homo sapiens, UniProt P01889, A329T/A93T/A95T/C349S/D201E/D98Y/E187L/E204Q/K202T/N87E/Q94N/R155S/R180L/S121R/S35A/V306I/V36M/Y140S/Y91S). As to the kind of experiment: biochemical. The test is classed as binding.

Where a SMILES comes first, the peptide text is derived from it.

Take `CSCC[C@H](N)C(=O)N[C@@H](CCCCN)C(=O)N[C@@H](Cc1ccc(O)cc1)C(=O)N[C@@H](CS)C(=O)N[C@@H](CO)C(=O)N[C@@H](Cc1ccc(O)cc1)C(=O)N[C@@H](CCC(N)=O)C(=O)N[C@@H](CO)C(=O)N[C@@H](Cc1ccccc1)C(=O)O` [3102.1287] (H-MKYCSYQSF-OH): the IC50 is 1.6 nM.

The compound `CC(C)C[C@H](N)C(=O)N[C@@H](CCCCN)C(=O)N[C@H](C(=O)N[C@H](C(=O)N[C@@H](Cc1ccccc1)C(=O)N[C@H](C(=O)N[C@@H](Cc1c[nH]cn1)C(=O)N1CCC[C@H]1C(=O)N[C@@H](Cc1ccccc1)C(=O)O)C(C)C)[C@@H](C)O)[C@@H](C)O` [3102.1294] (H-LKTTFVHPF-OH) displayed an IC50 of 1.3 nM.

The compound `CC[C@H](C)[C@H](NC(=O)[C@H](CO)NC(=O)[C@H](CCCNC(=N)N)NC(=O)[C@H](CCCNC(=N)N)NC(=O)[C@@H](NC(=O)[C@@H](NC(=O)[C@@H](NC(=O)[C@H](CCCCN)NC(=O)[C@@H](N)Cc1ccccc1)C(C)C)[C@@H](C)O)[C@@H](C)O)C(=O)O` [3102.1295] (H-FKVTTRRSI-OH) displayed an IC50 of 4.6 nM.

The compound `CC[C@H](C)[C@H](NC(=O)[C@H](CO)NC(=O)[C@@H](NC(=O)[C@H](C)NC(=O)[C@H](CC(C)C)NC(=O)[C@H](CC(N)=O)NC(=O)[C@H](CCCCN)NC(=O)[C@@H](N)Cc1ccccc1)[C@@H](C)O)C(=O)N[C@@H](Cc1ccc(O)cc1)C(=O)O` [3102.1297] (H-FKNLATSIY-OH) had an IC50 of 1.6 nM.

On to `CC[C@H](C)[C@H](NC(=O)[C@H](CC(=O)O)NC(=O)[C@@H](NC(=O)[C@H](Cc1ccccc1)NC(=O)[C@@H](NC(=O)[C@H](CCCCN)NC(=O)[C@@H](N)Cc1ccc(O)cc1)C(C)C)[C@@H](C)O)C(=O)N[C@@H](CO)C(=O)N[C@@H](CCSC)C(=O)O` [3102.1298] (H-YKVFTDISM-OH), for which the IC50 was 2.2 nM.

`CSCC[C@H](NC(=O)[C@H](CCCCN)NC(=O)[C@H](CS)NC(=O)[C@H](CO)NC(=O)[C@H](CO)NC(=O)[C@H](CCC(N)=O)NC(=O)[C@@H](N)CCCNC(=N)N)C(=O)N[C@@H](C)C(=O)N[C@@H](CC(C)C)C(=O)O` [3102.1299] (H-RQSSCKMAL-OH): the IC50 was determined as 19 nM.

As to `CC[C@H](C)[C@H](NC(=O)[C@H](CO)NC(=O)[C@H](CC(C)C)NC(=O)[C@@H](NC(=O)[C@H](CCCCN)NC(=O)[C@@H](N)Cc1c[nH]c2ccccc12)C(C)C)C(=O)N[C@@H](CCSC)C(=O)N[C@@H](C)C(=O)N[C@@H](Cc1ccccc1)C(=O)O` [3102.1300] (H-WKVLSIMAF-OH), the IC50 is 9.3 nM.

Regarding `CC(C)C[C@H](N)C(=O)N[C@@H](CCCCN)C(=O)N[C@@H](CO)C(=O)N[C@@H](CC(N)=O)C(=O)N[C@@H](C)C(=O)N[C@@H](CC(=O)O)C(=O)N[C@@H](Cc1c[nH]c2ccccc12)C(=O)N[C@@H](Cc1ccccc1)C(=O)N[C@@H](Cc1ccccc1)C(=O)O` [3102.1304] (H-LKSNADWFF-OH), half-maximal inhibition (IC50) was put at 10 nM. This IC50 and that of the compound before are within 1.5-fold of each other.

For `CC[C@H](C)[C@H](N)C(=O)N[C@@H](CCSC)C(=O)N[C@H](C(=O)N[C@@H](CO)C(=O)NCC(=O)N[C@H](C(=O)N[C@H](C(=O)N1CCC[C@H]1C(=O)N[C@@H](Cc1ccccc1)C(=O)O)[C@@H](C)CC)C(C)C)[C@@H](C)O` [3102.1305] (H-IMTSGVIPF-OH), it took 0.22 nM to reach half-maximal inhibition (IC50).

Regarding `CC(C)[C@H](NC(=O)[C@@H](NC(=O)[C@H](C)NC(=O)[C@H](Cc1ccc(O)cc1)NC(=O)[C@@H](NC(=O)[C@H](C)NC(=O)[C@@H](N)CO)[C@@H](C)O)[C@@H](C)O)C(=O)N1CCC[C@H]1C(=O)N[C@@H](Cc1ccccc1)C(=O)O` [3102.1306] (H-SATYATVPF-OH), half-maximal inhibition (IC50) required 12 nM.

Consider `CC(C)[C@H](NC(=O)[C@H](CCC(N)=O)NC(=O)[C@H](CO)NC(=O)[C@@H](NC(=O)[C@H](CO)NC(=O)[C@@H](NC(=O)[C@H](CCC(N)=O)NC(=O)[C@@H](N)Cc1ccc(O)cc1)[C@@H](C)O)C(C)C)C(=O)N[C@@H](C)C(=O)O` [3102.1307] (H-YQTSVSQVA-OH), for which the IC50 amounted to 1.5 nM.

Turning to `CSCC[C@H](NC(=O)[C@H](CC(N)=O)NC(=O)CNC(=O)[C@H](CS)NC(=O)CNC(=O)[C@H](Cc1ccc(O)cc1)NC(=O)[C@H](CCCCN)NC(=O)[C@@H](N)CCCNC(=N)N)C(=O)N[C@@H](Cc1ccccc1)C(=O)O` [3102.1308] (H-RKYGCGNMF-OH), 1.3 nM corresponded to half-maximal inhibition (IC50).

For the compound `CC[C@H](C)[C@H](NC(=O)[C@H](CC(N)=O)NC(=O)[C@H](CC(C)C)NC(=O)[C@H](Cc1ccccc1)NC(=O)[C@H](CC(C)C)NC(=O)[C@@H](N)Cc1ccccc1)C(=O)N[C@@H](CC(N)=O)C(=O)N[C@@H](Cc1c[nH]cn1)C(=O)N[C@@H](Cc1ccc(O)cc1)C(=O)O` [3102.1309] (H-FLFLNINHY-OH), inhibition was half-maximal at 6.5 nM (IC50). This IC50 is about 5-fold higher than that of the compound before.

In turn, `CC(C)C[C@H](NC(=O)[C@@H](NC(=O)[C@H](CO)NC(=O)[C@H](C)NC(=O)[C@H](Cc1ccc(O)cc1)NC(=O)[C@H](CCC(N)=O)NC(=O)[C@H](C)N)[C@@H](C)O)C(=O)N[C@@H](CO)C(=O)N[C@H](C(=O)O)C(C)C` [3102.1314] (H-AQYASTLSV-OH) came in with an IC50 of 0.16 nM. Compared with the last compound, the IC50 is about 41-fold lower.

The compound `CC[C@H](C)[C@H](NC(=O)[C@H](CO)NC(=O)[C@@H]1CCCN1C(=O)[C@H](CC(C)C)NC(=O)[C@@H](NC(=O)[C@H](CCSC)NC(=O)[C@H](CCSC)NC(=O)[C@@H](N)CC(C)C)[C@@H](C)O)C(=O)N[C@@H](Cc1ccccc1)C(=O)O` [3102.1317] (H-LMMTLPSIF-OH) displayed an IC50 of 0.15 nM.

Turning to `CC[C@H](C)[C@H](N)C(=O)N[C@@H](CCSC)C(=O)N[C@H](C(=O)N[C@@H](CO)C(=O)N[C@@H](CCC(=O)O)C(=O)N[C@@H](Cc1c[nH]cn1)C(=O)N[C@@H](Cc1ccccc1)C(=O)N[C@@H](CO)C(=O)N[C@@H](CC(C)C)C(=O)O)C(C)C` [3102.1318] (H-IMVSEHFSL-OH), half-maximal inhibition (IC50) was put at 5.5 nM.

`CC(C)[C@H](NC(=O)[C@H](CC(N)=O)NC(=O)[C@@H](N)CO)C(=O)N[C@H](C(=O)N[C@@H](CS)C(=O)NCC(=O)N[C@H](C(=O)N[C@H](C(=O)N[C@@H](Cc1ccccc1)C(=O)O)[C@@H](C)O)[C@@H](C)O)C(C)C` [3102.1319] (H-SNVVCGTTF-OH): the IC50 turned out to be 25 nM.

With `CC[C@H](C)[C@H](NC(=O)[C@H](CC(N)=O)NC(=O)[C@@H](NC(=O)[C@H](C)NC(=O)[C@H](CS)NC(=O)[C@H](CCCNC(=N)N)NC(=O)[C@@H](NC(=O)[C@@H](N)CO)[C@@H](C)CC)[C@@H](C)O)C(=O)N[C@@H](Cc1ccccc1)C(=O)O` [3102.1321] (H-SIRCATNIF-OH), the midpoint of inhibition, the IC50, lay at 20 nM.

With `C[C@H](NC(=O)[C@H](Cc1c[nH]c2ccccc12)NC(=O)[C@H](CO)NC(=O)CNC(=O)[C@@H](N)CCCNC(=N)N)C(=O)N[C@H](C(=O)N[C@@H](CO)C(=O)N[C@@H](CO)C(=O)N[C@@H](Cc1ccccc1)C(=O)O)[C@@H](C)O` [3102.1323] (H-RGSWATSSF-OH), the IC50 is 11 nM.

`CC[C@H](C)[C@H](NC(=O)[C@H](Cc1ccccc1)NC(=O)[C@H](CCC(=O)O)NC(=O)[C@H](Cc1ccccc1)NC(=O)[C@H](C)NC(=O)[C@H](C)N)C(=O)N[C@@H](CC(N)=O)C(=O)N[C@@H](CO)C(=O)N[C@@H](CC(C)C)C(=O)O` [3102.1324] (H-AAFEFINSL-OH) showed an IC50 of 4.6 nM.

Compound `CC[C@H](C)[C@H](N)C(=O)N[C@@H](CCCCN)C(=O)N[C@H](C(=O)N[C@@H](CCSC)C(=O)N[C@@H](CCSC)C(=O)N[C@H](C(=O)N[C@@H](CC(N)=O)C(=O)N1CCC[C@H]1C(=O)N[C@@H](Cc1ccccc1)C(=O)O)[C@@H](C)CC)[C@@H](C)O` [3102.1325] (H-IKTMMINPF-OH) had an IC50 of 0.19 nM.

As to `CC[C@H](C)[C@H](N)C(=O)N[C@@H](CCC(N)=O)C(=O)N[C@@H](Cc1ccc(O)cc1)C(=O)N[C@@H](CC(=O)O)C(=O)N[C@@H](CCCNC(=N)N)C(=O)N[C@@H](CCCNC(=N)N)C(=O)N[C@@H](CO)C(=O)N[C@@H](Cc1ccccc1)C(=O)N[C@@H](Cc1ccccc1)C(=O)O` [3102.1327] (H-IQYDRRSFF-OH), the IC50 stood at 0.15 nM.

`CC(C)C[C@H](NC(=O)[C@H](CO)NC(=O)[C@@H]1CCCN1C(=O)[C@H](CO)NC(=O)[C@H](Cc1ccccc1)NC(=O)[C@H](CO)NC(=O)[C@@H](NC(=O)[C@H](CO)NC(=O)[C@@H](N)Cc1ccccc1)C(C)C)C(=O)O` [3102.1332] (H-FSVSFSPSL-OH) showed an IC50 of 22 nM.

`CSCC[C@H](NC(=O)[C@@H](N)CCCCN)C(=O)N[C@H](C(=O)N[C@@H](Cc1ccc(O)cc1)C(=O)N[C@@H](C)C(=O)N[C@@H](CC(C)C)C(=O)N[C@@H](CC(C)C)C(=O)N[C@@H](CC(C)C)C(=O)N[C@@H](Cc1ccc(O)cc1)C(=O)O)C(C)C` [3102.1336] (H-KMVYALLLY-OH) came in with an IC50 of 2.7 nM. Compared with the last compound, the IC50 is about 8.1-fold lower.

Regarding `CC(C)C[C@H](NC(=O)[C@H](C)NC(=O)[C@H](CO)NC(=O)[C@@H](N)Cc1ccccc1)C(=O)N1CCC[C@H]1C(=O)N[C@H](C(=O)N[C@@H](CC(N)=O)C(=O)N[C@@H](CCC(=O)O)C(=O)N[C@@H](Cc1ccccc1)C(=O)O)[C@@H](C)O` [3102.1337] (H-FSALPTNEF-OH), the IC50 came to 0.13 nM.

In the case of `CC[C@H](C)[C@H](NC(=O)[C@H](CO)NC(=O)[C@H](CC(=O)O)NC(=O)[C@H](CO)NC(=O)[C@H](CC(N)=O)NC(=O)[C@H](CCC(N)=O)NC(=O)[C@H](CCC(N)=O)NC(=O)[C@@H](N)CO)C(=O)N[C@@H](Cc1ccccc1)C(=O)O` [3102.1340] (H-SQQNSDSIF-OH), the IC50 was found to be 1.9 nM.

The compound `CC[C@H](C)[C@H](NC(=O)[C@H](CC(N)=O)NC(=O)[C@@H](NC(=O)[C@H](Cc1ccccc1)NC(=O)[C@H](CO)NC(=O)[C@@H](NC(=O)[C@H](CO)NC(=O)[C@@H](N)Cc1c[nH]c2ccccc12)[C@@H](C)O)[C@@H](C)O)C(=O)N[C@@H](Cc1ccccc1)C(=O)O` [3102.1342] (H-WSTSFTNIF-OH) registered a half-inhibitory concentration (IC50) of 5.9 nM.

Turning to `CC[C@H](C)[C@H](NC(=O)[C@H](CC(C)C)NC(=O)[C@H](CCC(=O)O)NC(=O)[C@@H](NC(=O)[C@@H](NC(=O)[C@H](CCC(N)=O)NC(=O)[C@@H](N)CO)[C@@H](C)O)[C@@H](C)CC)C(=O)N[C@@H](C)C(=O)N[C@@H](Cc1ccccc1)C(=O)O` [3102.1343] (H-SQTIELIAF-OH), the IC50 was 0.21 nM.
